Results from BindingDB's records for doi:10.1016/0960-894X(95)00483-A (1995).

Biological target: Beta-2 adrenergic receptor (Rattus norvegicus) (UniProt P10608)
Test: Agonistic activity against Beta-2 adrenergic receptor in rat uterus

Chain of Beta-2 adrenergic receptor (Rattus norvegicus) (P10608 whole entry, looked up): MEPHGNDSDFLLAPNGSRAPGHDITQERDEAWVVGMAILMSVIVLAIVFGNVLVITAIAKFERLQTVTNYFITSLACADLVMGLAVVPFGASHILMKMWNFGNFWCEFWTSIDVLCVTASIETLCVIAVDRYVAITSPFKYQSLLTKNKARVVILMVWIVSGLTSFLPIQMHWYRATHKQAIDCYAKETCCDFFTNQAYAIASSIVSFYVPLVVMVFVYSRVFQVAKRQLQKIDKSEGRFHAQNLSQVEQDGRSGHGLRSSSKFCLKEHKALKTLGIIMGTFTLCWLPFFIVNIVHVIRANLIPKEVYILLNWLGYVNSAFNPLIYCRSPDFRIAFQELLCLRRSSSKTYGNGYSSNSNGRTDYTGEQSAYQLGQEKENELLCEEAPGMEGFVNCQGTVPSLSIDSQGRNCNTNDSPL

O=C(O)C1(C(=O)O)Oc2cc3c(cc2O1)C[C@@H](NC[C@H](O)c1cccc(Cl)c1)CCC3 [FR-165914] showed an IC50 greater than 10 µM.
